Activity calls are given as the source filed them. The calls are words filed in the database; no cut-off is given here.
Key:
[1] = target: T1, Histone acetyltransferase GCN5 (Saccharomyces cerevisiae S288c, UniProt Q03330); assay: Inhibition of yeast GCN5 (99 to 262 residues) expressed in Escherichia coli BL21 (DE3) preincubated for 15 mins followed by biotin tagged H3 peptide ( 1 to 23 residues) and [3H]-Ac-CoA addition and measured after 60 mins by radioactive acetylation assay
[2] = target: T1, Histone acetyltransferase GCN5; assay: Binding affinity to yeast GCN5 (99 to 262 residues) expressed in Escherichia coli BL21 (DE3) by SPR analysis
[3] = target: Histone acetyltransferase GCN5 (Saccharomyces cerevisiae S288c) (UniProt Q03330); assay: Inhibition of yeast GCN5 (99 to 262 residues) expressed in Escherichia coli BL21 (DE3) at 100 uM using biotin tagged H3 peptide ( 1 to 23 residues) as substrate preincubated for 30 mins followed by AC-CoA and substrate addition and measured after 30 mins by AlphaScreen assay
Chain of Histone acetyltransferase GCN5 (Saccharomyces cerevisiae S288c) (Q03330 whole entry, the tested form may be a part): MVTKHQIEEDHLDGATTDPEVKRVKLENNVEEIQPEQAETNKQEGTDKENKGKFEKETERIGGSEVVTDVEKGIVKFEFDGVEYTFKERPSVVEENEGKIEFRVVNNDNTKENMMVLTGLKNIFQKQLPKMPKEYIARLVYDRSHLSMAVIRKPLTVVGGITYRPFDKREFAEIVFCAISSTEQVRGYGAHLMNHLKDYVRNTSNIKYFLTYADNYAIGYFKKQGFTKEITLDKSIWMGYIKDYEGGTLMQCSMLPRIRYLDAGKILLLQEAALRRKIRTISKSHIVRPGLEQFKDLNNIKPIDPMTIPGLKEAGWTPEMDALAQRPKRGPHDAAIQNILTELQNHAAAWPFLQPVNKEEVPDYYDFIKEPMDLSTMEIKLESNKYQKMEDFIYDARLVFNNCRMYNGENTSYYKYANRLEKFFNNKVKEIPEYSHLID

[4] = target: Histone acetyltransferase GCN5 (Saccharomyces cerevisiae S288c) (UniProt Q03330); assay: Binding affinity to yeast GCN5 (99 to 262 residues) expressed in Escherichia coli BL21 (DE3) at 200 uM by CPMG NMR spectroscopy
[5] = target: Histone acetyltransferase GCN5 (Saccharomyces cerevisiae S288c) (UniProt Q03330); assay: Binding affinity to yeast GCN5 (99 to 262 residues) expressed in Escherichia coli BL21 (DE3) at 200 uM by STD NMR spectroscopy
[6] = target: Histone acetyltransferase GCN5 (Saccharomyces cerevisiae S288c) (UniProt Q03330); assay: Inhibition of yeast GCN5 (99 to 262 residues) expressed in Escherichia coli BL21 (DE3) at 33 uM preincubated for 15 mins followed by biotin tagged H3 peptide ( 1 to 23 residues) and [3H]-Ac-CoA addition and measured after 60 mins by radioactive acetylation assay
MV4-11 [7] = assay: Cell cycle arrest in human MV4-11 cells accumulation at G2 phase at 25 uM after 24 hrs bby propidium iodide staining-based flow cytometric analysis (reference value: 4.68%); assay type: functional
MV4-11 [8] = assay: Induction of apoptosis in human MV4-11 cells assessed as late apototic cells at 20 uM after 72 hrs by Annexin-V FITC/propidium iodide staining based flow cytometric analysis (reference value: 3.41%); assay type: functional
MV4-11 [9] = assay: Induction of apoptosis in human MV4-11 cells assessed as early apototic cells at 40 uM after 72 hrs by Annexin-V FITC/propidium iodide staining based flow cytometric analysis (reference value: 0.75%); assay type: functional
MV4-11 [10] = assay: Cell cycle arrest in human MV4-11 cells accumulation at G0/G1 phase after 24 hrs bby propidium iodide staining-based flow cytometric analysis; assay type: functional
MV4-11 [11] = assay: Cell cycle arrest in human MV4-11 cells accumulation at S phase at 25 uM after 24 hrs bby propidium iodide staining-based flow cytometric analysis (reference value: 42.77%); assay type: functional
MV4-11 [12] = assay: Induction of apoptosis in human MV4-11 cells assessed as late apototic cells at 40 uM after 72 hrs by Annexin-V FITC/propidium iodide staining based flow cytometric analysis (reference value: 3.41%); assay type: functional
MV4-11 [13] = assay: Cell cycle arrest in human MV4-11 cells accumulation at G2 phase at 12.5 uM after 24 hrs bby propidium iodide staining-based flow cytometric analysis (reference value: 4.68%); assay type: functional
MV4-11 [14] = assay: Induction of apoptosis in human MV4-11 cells assessed as necrotic cells at 20 uM after 72 hrs by Annexin-V FITC/propidium iodide staining based flow cytometric analysis (reference value: 0.66%); assay type: functional
[15] = target: Histone acetyltransferase KAT2A (Homo sapiens) (UniProt Q92830); assay: Inhibition of GCN5 in human MV4-11 cells assessed as reduction of acetylated H3K14 level up to 100 uM after 24 hrs by Western blot analysis; assay type: cell-based
Chain of Histone acetyltransferase KAT2A (Homo sapiens) (Q92830 2-837 limits assumed): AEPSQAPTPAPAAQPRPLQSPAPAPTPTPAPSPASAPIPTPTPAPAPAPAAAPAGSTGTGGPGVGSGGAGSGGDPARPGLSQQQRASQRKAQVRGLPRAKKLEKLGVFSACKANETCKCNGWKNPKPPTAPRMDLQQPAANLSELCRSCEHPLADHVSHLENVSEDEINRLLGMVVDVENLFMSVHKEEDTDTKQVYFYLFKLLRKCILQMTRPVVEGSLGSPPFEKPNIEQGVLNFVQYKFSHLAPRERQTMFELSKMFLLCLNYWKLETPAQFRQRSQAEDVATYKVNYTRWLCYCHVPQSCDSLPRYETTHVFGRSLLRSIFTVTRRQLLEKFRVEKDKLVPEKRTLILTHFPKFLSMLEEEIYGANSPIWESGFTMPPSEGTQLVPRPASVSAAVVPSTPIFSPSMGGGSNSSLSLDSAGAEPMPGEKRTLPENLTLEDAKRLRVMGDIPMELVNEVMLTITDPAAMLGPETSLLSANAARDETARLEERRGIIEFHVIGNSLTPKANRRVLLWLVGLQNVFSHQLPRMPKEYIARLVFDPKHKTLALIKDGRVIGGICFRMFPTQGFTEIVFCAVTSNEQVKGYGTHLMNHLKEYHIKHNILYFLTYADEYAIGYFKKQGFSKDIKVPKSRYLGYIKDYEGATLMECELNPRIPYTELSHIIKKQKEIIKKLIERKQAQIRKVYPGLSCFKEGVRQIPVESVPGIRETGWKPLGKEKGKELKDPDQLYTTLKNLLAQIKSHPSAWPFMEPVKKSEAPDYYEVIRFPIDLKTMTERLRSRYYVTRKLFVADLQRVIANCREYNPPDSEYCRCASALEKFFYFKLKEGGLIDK

[16] = target: T2, Histone-lysine N-methyltransferase EHMT2 (Homo sapiens) (UniProt Q96KQ7); assay: Inhibition of G9a (unknown origin) at 33 uM relative to control
T2 sequence (whole entry): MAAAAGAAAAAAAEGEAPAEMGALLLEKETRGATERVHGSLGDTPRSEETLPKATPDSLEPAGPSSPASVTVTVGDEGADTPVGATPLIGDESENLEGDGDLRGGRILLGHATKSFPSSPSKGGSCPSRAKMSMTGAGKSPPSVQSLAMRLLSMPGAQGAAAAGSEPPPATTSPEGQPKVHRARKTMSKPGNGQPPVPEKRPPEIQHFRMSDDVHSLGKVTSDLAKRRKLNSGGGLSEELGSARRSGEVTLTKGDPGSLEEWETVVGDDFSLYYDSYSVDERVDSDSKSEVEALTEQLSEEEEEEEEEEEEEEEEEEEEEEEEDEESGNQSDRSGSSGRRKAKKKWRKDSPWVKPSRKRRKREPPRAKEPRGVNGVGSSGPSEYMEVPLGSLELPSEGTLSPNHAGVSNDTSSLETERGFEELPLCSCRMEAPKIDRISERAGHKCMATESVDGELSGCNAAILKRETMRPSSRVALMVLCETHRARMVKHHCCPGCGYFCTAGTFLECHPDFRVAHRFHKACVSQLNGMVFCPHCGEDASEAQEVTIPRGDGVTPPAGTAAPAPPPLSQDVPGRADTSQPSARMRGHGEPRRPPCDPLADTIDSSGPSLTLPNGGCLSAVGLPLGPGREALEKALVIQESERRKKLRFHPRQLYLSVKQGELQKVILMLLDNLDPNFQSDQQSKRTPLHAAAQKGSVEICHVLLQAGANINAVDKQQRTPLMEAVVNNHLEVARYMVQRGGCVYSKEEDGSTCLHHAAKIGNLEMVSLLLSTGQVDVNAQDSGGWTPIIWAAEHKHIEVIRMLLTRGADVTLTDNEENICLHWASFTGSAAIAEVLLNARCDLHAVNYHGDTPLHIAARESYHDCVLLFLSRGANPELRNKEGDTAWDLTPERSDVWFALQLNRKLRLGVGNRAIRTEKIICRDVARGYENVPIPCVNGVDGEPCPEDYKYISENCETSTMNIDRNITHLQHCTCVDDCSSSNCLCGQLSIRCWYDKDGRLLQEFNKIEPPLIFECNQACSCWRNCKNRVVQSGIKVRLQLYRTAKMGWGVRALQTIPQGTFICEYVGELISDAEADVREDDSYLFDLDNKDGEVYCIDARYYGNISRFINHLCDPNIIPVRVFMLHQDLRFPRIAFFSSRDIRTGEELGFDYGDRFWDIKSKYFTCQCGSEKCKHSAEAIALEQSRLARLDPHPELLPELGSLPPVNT

[17] = target: Histone acetyltransferase p300 (Homo sapiens) (UniProt Q09472); assay: Inhibition of p300 (unknown origin) at 33 uM relative to control
Chain of Histone acetyltransferase p300 (Homo sapiens) (Q09472 whole entry): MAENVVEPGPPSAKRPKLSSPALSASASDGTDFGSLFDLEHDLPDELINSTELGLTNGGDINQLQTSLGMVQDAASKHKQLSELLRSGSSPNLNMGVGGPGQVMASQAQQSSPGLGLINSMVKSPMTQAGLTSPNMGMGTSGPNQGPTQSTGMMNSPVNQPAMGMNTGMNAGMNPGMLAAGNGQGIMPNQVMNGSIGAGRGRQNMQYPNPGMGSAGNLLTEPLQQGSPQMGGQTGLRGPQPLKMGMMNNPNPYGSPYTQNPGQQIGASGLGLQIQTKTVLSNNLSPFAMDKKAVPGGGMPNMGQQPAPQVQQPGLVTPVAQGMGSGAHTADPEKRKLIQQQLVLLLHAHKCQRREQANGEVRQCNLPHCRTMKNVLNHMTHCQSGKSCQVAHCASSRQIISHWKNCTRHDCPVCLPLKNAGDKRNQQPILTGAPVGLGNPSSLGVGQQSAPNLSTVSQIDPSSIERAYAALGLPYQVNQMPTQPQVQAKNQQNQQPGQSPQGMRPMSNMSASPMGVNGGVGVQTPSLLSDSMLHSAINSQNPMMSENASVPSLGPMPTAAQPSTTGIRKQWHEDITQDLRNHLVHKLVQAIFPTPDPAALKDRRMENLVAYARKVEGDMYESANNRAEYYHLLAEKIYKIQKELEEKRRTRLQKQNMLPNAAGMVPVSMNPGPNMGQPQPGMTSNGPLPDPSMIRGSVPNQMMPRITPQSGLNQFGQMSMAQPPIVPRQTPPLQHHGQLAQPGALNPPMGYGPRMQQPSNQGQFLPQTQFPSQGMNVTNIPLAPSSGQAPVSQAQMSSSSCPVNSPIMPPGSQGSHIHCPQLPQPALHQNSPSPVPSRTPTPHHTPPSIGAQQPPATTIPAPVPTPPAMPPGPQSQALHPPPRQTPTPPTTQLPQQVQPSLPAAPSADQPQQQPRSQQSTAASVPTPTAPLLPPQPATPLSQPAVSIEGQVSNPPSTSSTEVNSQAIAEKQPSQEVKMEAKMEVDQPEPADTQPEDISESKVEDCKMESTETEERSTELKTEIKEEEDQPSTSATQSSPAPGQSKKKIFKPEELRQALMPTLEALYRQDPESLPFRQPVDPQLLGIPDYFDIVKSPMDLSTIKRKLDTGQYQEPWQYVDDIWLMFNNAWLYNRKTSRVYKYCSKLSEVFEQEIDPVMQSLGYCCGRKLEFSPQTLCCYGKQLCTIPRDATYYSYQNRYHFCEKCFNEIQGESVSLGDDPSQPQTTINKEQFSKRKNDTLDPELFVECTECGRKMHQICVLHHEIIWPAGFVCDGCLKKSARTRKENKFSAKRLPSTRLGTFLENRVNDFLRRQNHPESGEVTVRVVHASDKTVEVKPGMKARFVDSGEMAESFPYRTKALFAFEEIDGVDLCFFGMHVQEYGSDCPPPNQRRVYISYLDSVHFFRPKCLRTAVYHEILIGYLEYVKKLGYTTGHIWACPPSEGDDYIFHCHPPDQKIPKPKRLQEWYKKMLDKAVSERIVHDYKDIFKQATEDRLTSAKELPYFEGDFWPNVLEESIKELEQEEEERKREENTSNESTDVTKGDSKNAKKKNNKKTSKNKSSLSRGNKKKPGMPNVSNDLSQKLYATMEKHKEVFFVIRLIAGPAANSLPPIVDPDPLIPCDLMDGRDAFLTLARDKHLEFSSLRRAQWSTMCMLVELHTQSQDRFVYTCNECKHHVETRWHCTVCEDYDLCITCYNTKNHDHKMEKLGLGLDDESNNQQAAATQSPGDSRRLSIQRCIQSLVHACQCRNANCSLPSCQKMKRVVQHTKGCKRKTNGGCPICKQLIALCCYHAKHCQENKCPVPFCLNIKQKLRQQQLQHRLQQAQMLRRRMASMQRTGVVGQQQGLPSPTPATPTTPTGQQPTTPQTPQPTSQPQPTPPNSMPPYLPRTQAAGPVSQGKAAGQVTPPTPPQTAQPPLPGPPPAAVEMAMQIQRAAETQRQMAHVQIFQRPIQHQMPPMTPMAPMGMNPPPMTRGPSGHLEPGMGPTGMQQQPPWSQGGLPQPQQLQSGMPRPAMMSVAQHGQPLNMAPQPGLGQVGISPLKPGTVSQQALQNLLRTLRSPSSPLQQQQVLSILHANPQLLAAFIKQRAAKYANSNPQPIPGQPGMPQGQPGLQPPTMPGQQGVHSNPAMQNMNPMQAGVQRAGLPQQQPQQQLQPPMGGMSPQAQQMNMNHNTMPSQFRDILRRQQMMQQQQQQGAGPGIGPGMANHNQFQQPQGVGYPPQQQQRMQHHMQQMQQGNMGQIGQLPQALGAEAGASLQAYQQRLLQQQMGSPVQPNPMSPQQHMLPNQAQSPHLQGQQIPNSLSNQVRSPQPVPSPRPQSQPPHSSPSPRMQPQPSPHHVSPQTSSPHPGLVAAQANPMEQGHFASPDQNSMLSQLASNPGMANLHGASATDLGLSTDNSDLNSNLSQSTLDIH

MV4-11 [18] = assay: Induction of apoptosis in human MV4-11 cells assessed as viable cells at 40 uM after 72 hrs by Annexin-V FITC/propidium iodide staining based flow cytometric analysis (reference value: 95.2%); assay type: functional; details: MV4-11, 72 h, read-out: Activity
[19] = target: Histone-lysine N-methyltransferase EZH2 (Homo sapiens) (UniProt Q15910); assay: Inhibition of EZH2 (unknown origin) at 33 uM relative to control
Chain of Histone-lysine N-methyltransferase EZH2 (Homo sapiens) (Q15910 whole entry, looked up): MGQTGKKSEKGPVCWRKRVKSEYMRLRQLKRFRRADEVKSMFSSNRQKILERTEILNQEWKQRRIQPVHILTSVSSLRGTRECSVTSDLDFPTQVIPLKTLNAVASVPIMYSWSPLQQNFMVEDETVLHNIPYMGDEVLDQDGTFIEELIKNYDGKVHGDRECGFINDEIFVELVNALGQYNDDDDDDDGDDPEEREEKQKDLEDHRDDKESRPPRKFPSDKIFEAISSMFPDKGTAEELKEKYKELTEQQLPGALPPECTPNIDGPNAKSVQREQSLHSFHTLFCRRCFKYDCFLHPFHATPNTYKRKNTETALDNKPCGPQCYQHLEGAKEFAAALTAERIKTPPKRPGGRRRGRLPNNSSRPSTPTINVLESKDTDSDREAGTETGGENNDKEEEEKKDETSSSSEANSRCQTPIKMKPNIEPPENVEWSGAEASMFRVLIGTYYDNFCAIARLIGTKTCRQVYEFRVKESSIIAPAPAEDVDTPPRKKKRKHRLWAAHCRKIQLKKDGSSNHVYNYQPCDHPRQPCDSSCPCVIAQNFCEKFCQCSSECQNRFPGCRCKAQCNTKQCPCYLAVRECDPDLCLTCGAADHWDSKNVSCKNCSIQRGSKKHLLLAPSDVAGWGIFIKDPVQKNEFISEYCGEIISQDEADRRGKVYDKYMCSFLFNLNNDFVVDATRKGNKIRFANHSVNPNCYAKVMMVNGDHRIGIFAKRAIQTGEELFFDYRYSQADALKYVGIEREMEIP

[20] = Antiproliferative activity against human […] cells after 3 days by celltiter-glo luminescent assay; assay type: cell-based; details: 72 h
MV4-11 [21] = assay: Antiproliferative activity against human MV4-11 cells after 3 days by celltiter-glo luminescent assay; assay type: functional, cell-based; details: for IC50: MV4-11, 72 h
MV4-11 [22] = assay: Induction of apoptosis in human MV4-11 cells assessed as viable cells at 20 uM after 72 hrs by Annexin-V FITC/propidium iodide staining based flow cytometric analysis (reference value: 95.2%); assay type: functional; details: MV4-11, 72 h, read-out: Activity
MV4-11 [23] = assay: Cell cycle arrest in human MV4-11 cells accumulation at S phase at 12.5 uM after 24 hrs bby propidium iodide staining-based flow cytometric analysis (reference value: 42.77%); assay type: functional
HUVEC = assay: Antiproliferative activity against HUVEC after 3 days by celltiter-glo luminescent assay; assay type: cell-based; details: human, 72 h
MV4-11 [24] = assay: Induction of apoptosis in human MV4-11 cells assessed as necrotic cells at 40 uM after 72 hrs by Annexin-V FITC/propidium iodide staining based flow cytometric analysis (reference value: 0.66%); assay type: functional
MV4-11 [25] = assay: Cell cycle arrest in human MV4-11 cells accumulation at G1 phase at 25 uM after 24 hrs bby propidium iodide staining-based flow cytometric analysis (reference value: 52.56%); assay type: functional
MV4-11 [26] = assay: Induction of apoptosis in human MV4-11 cells assessed as early apototic cells at 20 uM after 72 hrs by Annexin-V FITC/propidium iodide staining based flow cytometric analysis (reference value: 0.75%); assay type: functional
MV4-11 [27] = assay: Induction of apoptosis in human MV4-11 cells after 72 hrs by Annexin-V FITC/propidium iodide staining based flow cytometric analysis; assay type: functional, cell-based
MV4-11 [28] = assay: Cell cycle arrest in human MV4-11 cells accumulation at G1 phase at 12.5 uM after 24 hrs bby propidium iodide staining-based flow cytometric analysis (reference value: 52.56%); assay type: functional

T1 sequence (Q03330 whole entry, the tested form may be a part): as the sequence (Q03330 whole entry, the tested form may be a part) above

CC1(C)CC(=O)C2=C(C1)NC1=C(C(=O)CC(C)(C)C1)C2c1ccc(OCc2ccc(C(=O)O)cc2)c(Br)c1
IC50 [1]: 16 µM

O=C1CCCC2=C1C(c1cc(Cl)c(OCc3ccc(C(=O)O)cc3)c(Cl)c1)C1=C(CCCC1=O)N2
IC50 [1]: 34.7 µM | Kd [2]: 26.2 µM | inhibition [3]: > 70% | Activity [4]: Active | Activity [5]: Active

CC1(C)CC(=O)C2=C(C1)NC1=C(C(=O)CC(C)(C)C1)C2c1ccc(OCc2ccccc2)c(Br)c1
inhibition [6]: 15%

O=C1CCCC2=C1C(c1ccc(OCc3ccc(C(=O)O)cc3)cc1)c1ccc3ccccc3c1N2 (stereo not drawn)
IC50 [1]: 34 µM

O=C(O)c1ccc(COc2ccccc2Br)cc1
IC50 [1]: 81 µM

COc1cc(CNC2CCCC2)ccc1OCC(=O)NC(C)(C)C
inhibition [3]: > 70%

COc1cc(C2C3=C(CCCC3=O)NC3=C2C(=O)CCC3)ccc1OCc1ccc(C(=O)O)cc1
inhibition [6]: 24%

CC1(C)CC(=O)C2=C(C1)NC1=C(C(=O)CC(C)(C)C1)C2c1ccc(O)c(Br)c1
inhibition [6]: 18%

COC(=O)C1=C(C)NC2=C(C(=O)CC(C)(C)C2)C1c1ccc(OCc2ccc(C(=O)O)cc2)cc1 (stereo not drawn)
IC50 [1]: 31 µM

N#Cc1c(-c2ccc(F)cc2)cc(-c2cccs2)nc1SCC(=O)NCC(=O)O
IC50 [1]: 20 µM | inhibition [3]: > 70%

CN(C)CCOc1ccc(NC2Cc3ccccc3CSc3ccccc32)cc1 (stereo not drawn)
inhibition [3]: > 70%

CCC(=O)Nc1cccc(NC(=O)C(C)Oc2cccc(C)c2)c1 (stereo not drawn)
inhibition [3]: > 70%

CC1(C)CC(=O)C2=C(C1)NC1=C(C(=O)CC(C)(C)C1)C2c1cc(Br)c(OCc2ccc(C(=O)O)cc2)c(Br)c1
Activity (MV4-11 [7]): 1.3% | Activity (MV4-11 [8]): 16.2% | IC50 [1]: 6.8 µM | Activity (MV4-11 [9]): 0.7% | Activity (MV4-11 [10]): Dose-dependent effect | Kd [2]: 4.2 µM | Activity (MV4-11 [11]): 13.99% | Activity (MV4-11 [12]): 54.6% | Activity (MV4-11 [13]): 1.35% | Activity (MV4-11 [14]): 0.41% | inhibition [15]: Active | inhibition [16]: -8% | inhibition [17]: 21% | viability at 40 µM (MV4-11 [18]): 42.4% | inhibition [19]: 7% | Activity [20]: Non-Toxic | Activity (MV4-11 [21]): Dose-dependent effect | IC50 (MV4-11 [21]): 24.7 µM | viability at 20 µM (MV4-11 [22]): 82.5% | Activity (MV4-11 [23]): 26.29% | Activity (HUVEC): Non-Toxic | Activity (MV4-11 [24]): 2.32% | Activity (MV4-11 [25]): 84.7% | Activity (MV4-11 [26]): 0.81% | Activity (MV4-11 [27]): Dose-dependent effect | Activity (MV4-11 [28]): 72.36%

COC(=O)c1cc(NC(=O)Cc2cccs2)cc(C(=O)OC)c1
IC50 [1]: 2.9 µM | inhibition [3]: > 70%

O=C1CCCC2=C1C(c1ccc(OCc3cccc(F)c3)c(Br)c1)C1=C(CCCC1=O)N2
inhibition [6]: 26% | inhibition [15]: inactive | IC50 (MV4-11 [21]): > 100 µM

O=C(O)c1ccc(-c2nc3c4ccccc4c4ccccc4c3[nH]2)cc1
IC50 [1]: 8.6 µM | inhibition [3]: > 70%

O=c1cc(O)c2sc3nc(-c4cccs4)cc(C(F)(F)F)c3c2[nH]1
IC50 [1]: 19 µM | inhibition [3]: > 70%

CC1=C(C#N)C(c2ccc(OCc3ccc(C(=O)O)cc3)cc2)C2=C(CCCC2=O)N1 (stereo not drawn)
inhibition [6]: 34%
